Assay results as given in publication PMC4629899, “Structural and Enzymatic Characterization of a Nucleoside Diphosphate Sugar Hydrolase from Bdellovibrio bacteriovorus” (PLoS ONE, 2015).

Key:
Bd-NDPSase (Bd3179) [1] = target: T1, Bd-NDPSase (Bd3179) (Bdellovibrio bacteriovorus, UniProt Q6MIH8, E140Q); experiment: X-ray crystal structure, […] A (soak); type: binding; conditions: crystals soaked in 5 mM ADPR for 2 days; catalytically inactive mutant; active site, no metal added
T1 construct: gene nudF; gene cloned from HD100 chromosomal DNA into pET24a, expressed in E. coli BL21 (DE3); conventional purification, no tag mentioned; homodimer, residues numbered to 182

Bd-NDPSase (Bd3179) [2] = target: T1, Bd-NDPSase (Bd3179); experiment: X-ray crystal structure, […] A; type: binding; conditions: from crystals with 5 mM UDP-glucose (co-crystallization per methods, soak per results); active site, shifted toward phosphate position
[3] = substrate: Nc1nc2c(ncn2[C@@H]2O[C@H](COP(=O)(O)OP(=O)(O)O[C@H]3O[C@H](CO)[C@@H](O)[C@H](O)[C@@H]3O)[C@@H](O)[C@H]2O)c(=O)[nH]1; experiment: phosphate release assay (Ames, coupled to calf intestinal phosphatase); type: biochemical, Bdellovibrio bacteriovorus; conditions: 5 mM MgCl2, 50 mM Tris-HCl pH 8.6, 1 mM EDTA
Description: phosphate release assay (Ames, coupled to calf intestinal phosphatase) on Bd-[…]

T1 sequence (Q6MIH8 entry or part of it E140Q): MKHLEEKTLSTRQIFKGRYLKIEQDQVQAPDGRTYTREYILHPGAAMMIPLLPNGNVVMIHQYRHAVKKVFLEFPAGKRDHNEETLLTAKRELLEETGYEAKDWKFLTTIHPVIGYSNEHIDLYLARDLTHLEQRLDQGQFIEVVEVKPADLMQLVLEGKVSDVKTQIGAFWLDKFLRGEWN

Nc1ncnc2c1ncn2[C@@H]1O[C@H](COP(=O)(O)OP(=O)(O)OC[C@H]2OC(O)[C@H](O)[C@@H]2O)[C@@H](O)[C@H]1O (stereo partly shown) [ADPR, ADP-ribose]
X-ray crystal structure, 2.06 A (soak) (Bd-NDPSase (Bd3179) [1]): E140Q Bd-NDPSase in complex with ADP-ribose (PDB ID 5C7T)

OC[C@H]1OC(O)[C@H](O)[C@@H](O)[C@@H]1O (stereo partly shown) [glucose]
X-ray crystal structure, 1.80 A (Bd-NDPSase (Bd3179) [2]): E140Q Bd-NDPSase in complex with glucose (PDB ID 5C8L)

B1: Bd-NDPSase (Bd3179) (Bdellovibrio bacteriovorus HD100) (protein)
chain: MKHLEEKTLSTRQIFKGRYLKIEQDQVQAPDGRTYTREYILHPGAAMMIPLLPNGNVVMIHQYRHAVKKVFLEFPAGKRDHNEETLLTAKRELLEETGYEAKDWKFLTTIHPVIGYSNEHIDLYLARDLTHLEQRLDQGEFIEVVEVKPADLMQLVLEGKVSDVKTQIGAFWLDKFLRGEWN
notes: gene cloned from HD100 chromosomal DNA into pET24a, expressed in E. coli BL21 (DE3); conventional purification, no tag mentioned; homodimer, residues numbered to 182
Km [3]: 300 µM | kcat [3]: 5200 s⁻¹
